From patent publication US11744269B2, “Vegetable and fruit wash formulation and uses thereof” (priority 2020, dated 2023)

Tests used:
[1] = system: crown rot disease in Banana; test: Crown rotting evaluation of bananas washed in industrial set-up (banana plantation); conditions: bananas soaked 30 minutes maximum in 2% VFW solution in water or NaClO solution in water
Description: As crown rot progresses, fruits like banana begins to soften and blacken and induces early ripening of fruits.
The crown-rot and fruit blackening studies are conducted to determine the efficacy of the Vegetable and Fruit Wash to protect the fruits from the so-called disease and also from premature ripening. This study is also conducted to determine the efficacy of the present invention in prolonging the life of the fruits, i.e. in increasing the shelf life of the fruits.
A batch of bananas is washed using 2% of Vegetable and Fruit Wash solution in water. The bananas are soaked in the solution for 30 minutes maximum, rinsed, dried and packed and are observed after 2 weeks of washing and after 4 weeks of washing post-delivery and ripening. Another batch of bananas are washed using Sodium Hypochlorite (NaClO) solution in water as per the industry standard washing procedure. The bananas are soaked in the solution for 30 minutes maximum, rinsed, dried and packed. They are observed after 2 weeks of washing and after 4 weeks of washing post delivery and ripening.

[2] = system: Candida albicans 10231; test: Zone of Inhibition Assay for Candida albicans 10231; format: cell-based
Description: Candida albicans is opportunistic pathogenic yeast found to have growth on fruits rich in sugar content like bananas, dates, grapes, mango, and dried fruit. The zone of inhibition assay is performed for the culture of Candida albicans 10231.

[3] = system: Escherichia coli 8739; test: Zone of Inhibition Assay for Escherichia coli 8739; format: cell-based
Description: (§1) The anti-microbial efficacy of VFW composition is evaluated by finding its zone of inhibition against Staphylococcus Aureus, Escherichia coli, Candida Albicans and Aspergillus Niger and compared with zone of inhibition of standard antibiotics known to be very potent in eliminating the subject microorganism.
as §1, with “albicans” for “Albicans”, “niger” for “Niger”
20-30% of food-poisoning outbreaks linked to disease causing strains of the bacterium Escherichia coli are caused by people eating contaminated vegetables. The assay was performed for the culture of Escherichia coli 8739. Gentamicin is known to be very effective in eliminating this strain and is used as standard antibiotic.

[4] = system: Staphylococcus aureus ATCC 6538; test: Zone of Inhibition Assay for Staphylococcus aureus ATCC 6538; format: cell-based
Description: as §1
as §1, with “albicans” for “Albicans”, “niger” for “Niger”
Staphylococcus aureus is a gram-positive, round-shaped bacterium found as dominant genera on the surfaces of vegetables and fruits. The assay was performed for the culture of Staphylococcus aureus ATCC 6538. Ciplox is known to be very effective in eliminating this strain. It was used as standard antibiotic.

## OCl [NaClO, Sodium Hypochlorite]
[1]
  Number of Rotten Crowns 2 weeks after Washing: 1
  Number of Rotten Crowns 4 weeks after Washing: 3
  Number of Rotten Crowns after Ripening: 5

## Zinc pyrithione [ZPTO]
[2]
  Zone of Inhibition (mm): 24.37 mm

## Gentamicin
[3]
  Zone of Inhibition (mm): 24.54 mm

## O=C(O)c1cn(C2CC2)c2cc(N3CCNCC3)c(F)cc2c1=O [Ciplox]
[4]
  Zone of Inhibition (mm): 27.64 mm
